Reference: patent US8114895B2, “Use of bipyridine compound ‘Caerulomycin A’ derivatives and analogs thereof as immunosuppressive agents” (Council of Science and Industrial Research, priority 2005, dated 2012)

Tests used:
[1] = test system: OVA-specific T cells; assay: Cytokine secretion by OVA-primed splenocytes (ELISA); type: cell-based, BALB/c mice; conditions: OVA 200 μg/ml, supernatants after 48 h
Description: OVA (2 mg/ml) was dissolved in PBS (0.01 M, pH 7.2) and emulsified in Freund's complete adjuvant (FCA). Emulsion (100 μl) was then injected intraperitoneally in a group consisting of 5 BALB/c mice. The control group was injected with PBS alone. After seven days, mice were sacrificed and splenocytes were pooled and used for proliferation and cytokine assays. Splenocytes (5×10^5 cells/well) were cultured with OVA (200 μg/ml) in 200 μl RPMI/FCS-10% medium and with various concentrations of Caerulomycin A (0.0003-0.1 μg/ml). The control cultures consisting of splenocytes incubated with different concentrations of Caerulomycin A (no OVA), OVA and medium were also kept. The culture supernatants were collected after 48 h and cytokines were measured by ELISA.

[2] = test system: peritoneal macrophages; assay: Expression of B7-1, B7-2, CD40 and IA^d on peritoneal macrophages by flow cytometry; type: cell-based, BALB/c mice
Description: The expression of B7-1 and B7-2 was detected on the surface of peritoneal macrophages incubated with different concentrations of Caerulomycin A (0.05-0.1 μg/ml). Peritoneal macrophages were harvested from BALB/c mice inoculated 4 days previously with 2-3 ml of thioglycolate. The cells were washed with BSS. The macrophages were obtained by adhering for 1 h at 37° C. on plastic Petri dishes followed by washing several times in cold BSS. The macrophages (1×10^6) were stimulated with 10 μg/ml of LPS for 24, 48 and 72 h in the presence and absence of Caerulomycin A (0.05-0.1 μg/ml) at 37° C. and 7% CO2. Then the cells were harvested and stained with their respective antibodies. Briefly, the cells were centrifuged (1200×g, 4° C., 5 min) and the supernatant was aspirated. The cells were washed 3× with 1% BSA, 0.1% sodium azide in PBS. In the first step, the cells (1×10^6) were incubated with biotinylated anti-mouse B7-1, CD40 and I-A^d (1 μg/100 μl) Abs for 45 min at 4° C. In the next step cells were stained with streptavidin FITC (0.5 μg/100 μl) or PE conjugated anti-mouse B7-2 (0.5 μg/100 μl) Abs and incubated for 45 min. Usual steps of washing were followed at each step. Finally the cells were washed five times and fixed in paraformaldehyde. The stained cells were acquired on a FACScan as mentioned for CD28/CTLA-4. Since the antigen presenting cells express B7-1 and B7-2, which are the ligands of CTLA-4 and CD28. […] The expression of IA^d was detected on the surface of peritoneal macrophages incubated with different concentrations of Caerulomycin A (0.05-0.1 μg/ml). Peritoneal macrophages were harvested from BALB/c mice inoculated 4 days previously with 2-3 ml of thioglycolate. The cells were washed with BSS. The macrophages were obtained by adhering for 1 h at 37° C. on plastic Petri dishes followed by washing several times in cold BSS. The macrophages (1×10^6) were stimulated with 10 μg/ml of LPS for 24, 48 and 72 h in the presence and absence of Caerulomycin A (0.05-0.1 μg/ml) at 37° C. and 7% CO2. Then the cells were harvested and stained with their respective antibodies. Briefly, the cells were centrifuged (1200×g, 4° C., 5 min) and the supernatant was aspirated. The cells were washed 3× with 1% BSA, 0.1% sodium azide in PBS. In the first step, the cells (1×10^6) were incubated with biotinylated anti-mouse I-A^d (1 μg/100 μl) Abs for 45 min at 4° C. In the next step cells were stained with streptavidin FITC (0.5 μg/100 μl) and incubated for 45 min. Usual steps of washing were followed at each step. Finally the cells were washed five times and fixed in paraformaldehyde. The stained cells were acquired on a FACScan as mentioned for CD28/CTLA-4. […] This may indicate that Caerulomycin A may inhibit the processing and presentation of antigen by APC.

[3] = test system: Th2 clones; assay: Proliferation of Th2 clones; type: cell-based; conditions: stimulated with anti-CD3 Ab or conalbumin pulsed γ-irradiated splenocytes; Caerulomycin A 0.00625-0.1 μg/ml
Description: The proliferation of Th2 clones was measured using cells harvested on 7-9 days after stimulation with antigen pulsed splenocytes. The dead cells were removed by ficoll-histopaque. Th2 clones (5×10^4 cells/well) were either stimulated with anti-CD3 Ab (0.1 μg/ml and 0.5 μg/ml) or incubated with γ-irradiated (3000 R) syngeneic splenocytes (5×10^5 cells/well) and conalbumin (100 μg/ml) in 200 μl RPMI/FCS-10% medium and with various concentrations of Caerulomycin A (0.00625-0.1 μg/ml). The control cultures consisting of Th2 cells incubated with conalbumin alone and γ-irradiated syngeneic splenocytes (no antigen) were also kept. The cultures were kept in a flat bottom 96 well microtitre plate and the cells were incubated at 37° C. and 7% CO2. After 48 h, the cultures were pulsed with 0.5 μCi of [^3H]-thymidine and harvested 16 h later. Radioactivity incorporated was measured by liquid scintillation counting and data are expressed as mean counts per minute (cpm).

[4] = LPS 10 μg/ml, Caerulomycin A 0.05-0.1 μg/ml

Structure (SMILES): COc1cc(/C=N/O)nc(-c2ccccn2)c1 [Caerulomycin A, (E)-4-methoxy-2,2′-bipyridine-6-carbaldehyde oxime]
- secretion of IFN-γ ([1]; Caerulomycin A 0.05-0.1 μg/ml): significantly suppressed the secretion
- production of IL-10 [1]: failed to induce any change
- display of B7-2 [2, 4]: decreased the display
- expression of B7-1 [2, 4]: enhanced the expression
- expression of IA^d [2, 4]: down regulated the expression
- expression of CD40 ([2]; after 72 h): Slight increase in the expression
- proliferation of Th2 clones [3]: substantially restricted the proliferation
